Laboratory results published in patent US7008905B2, “Method of combating undesired plant growth on cereals” (BASF Aktiengesellschaft, priority 2000, dated 2006).

Experiments:
Assay type in all cases: in vivo
PAPRH = assay: Pre-emergence test, weed control; details: 3 weeks after treatment, rating 0-100 (100=death), Table 3
Procedure: (§1) The pre-emergence tests involve spraying a liquid formulation of the compound onto the soil in which the seeds of the plant species mentioned above has recently been sown.
(§2) The soil used in the tests is a prepared horticultural loam. The formulations used in the tests are prepared from solutions of the test compounds in acetone containing 0.4% by weight of an alkylphenol/ethylene oxide condensate available under the trade mark TRITON X-155.
(§3) These acetone solutions are diluted with water and the resulting formulations applied at dosage levels corresponding to 15 g, 30 g, 60 g, 120 g or 240 g of active material per hectare in a volume equivalent to 900 liters per hectare. In these tests untreated sown soil is used as control. The herbicidal effects of the test compounds are assessed visually three weeks after spraying the soil and are recorded an a 0 to 100 scale. A rating 0 indicates growth as untreated control, a rating 100 indicates death. An increase of 10 unit an the linear scale approximates to a 10% increase in the level of effect. The results of the assessment are set out in Tables 1 to 4.

VIOAR = assay: Pre-emergence test, weed control; details: 3 weeks after treatment, rating 0-100 (100=death), Table 3
Procedure: as §1, §2, §3

[1] = system: Triticum aestivum variety “Kanzler”; assay: Pre-emergence test, selectivity; details: 3 weeks after treatment, rating 0-100 (100=death), Table 4
Procedure: as §1, §2, §3

[2] = system: Triticum aestivum variety “Monopol”; assay: Pre-emergence test, selectivity; details: 3 weeks after treatment, rating 0-100 (100=death), Table 4
Procedure: as §1, §2, §3

Stellaria media = assay: Pre-emergence test, weed control; details: 3 weeks after treatment, rating 0-100 (100=death), Table 3
Procedure: as §1, §2
(§4) In these tests untreated sown soil is used as control. The herbicidal effects of the test compounds are assessed visually three weeks after spraying the soil and are recorded an a 0 to 100 scale. A rating 0 indicates growth as untreated control, a rating 100 indicates death. An increase of 10 unit an the linear scale approximates to a 10% increase in the level of effect. The results of the assessment are set out in Tables 1 to 4.

Galium aparine = assay: Pre-emergence test, weed control; details: 3 weeks after treatment, rating 0-100 (100=death), Table 3
Procedure: as §1, §2, §4

Poa annua = assay: Pre-emergence test, weed control; details: 3 weeks after treatment, rating 0-100 (100=death), Table 3
Procedure: as §1, §2, §4

Apera spica-venti = assay: Pre-emergence test, weed control; details: 3 weeks after treatment, rating 0-100 (100=death), Table 3
Procedure: as §1, §2, §4

Veronica persica = assay: Pre-emergence test, weed control; details: 3 weeks after treatment, rating 0-100 (100=death), Table 3
Procedure: as §1, §2, §4

Setaria viridis = assay: Pre-emergence test, weed control; details: 3 weeks after treatment, rating 0-100 (100=death), Table 3
Procedure: as §1, §2, §4

Lolium perenne = assay: Pre-emergence test, weed control; details: 3 weeks after treatment, rating 0-100 (100=death), Table 3
Procedure: as §1, §2, §4

Lamium purpureum = assay: Pre-emergence test, weed control; details: 3 weeks after treatment, rating 0-100 (100=death), Table 3
Procedure: as §1, §2, §4

Matricaria inodora = assay: Pre-emergence test, weed control; details: 3 weeks after treatment, rating 0-100 (100=death), Table 3
Procedure: as §1, §2, §4

Alopecurus myosuroides = assay: Pre-emergence test, weed control; details: 3 weeks after treatment, rating 0-100 (100=death), Table 3
Procedure: as §1, §2, §4

wheat = assay: Pre-emergence test, tolerance in wheat; details: in vivo
Procedure: as §1, §2, §3

Cc1cc(Oc2ccnc(Cl)c2)nc(-c2ccc(C(F)(F)F)cc2)n1 [REF-6]
PAPRH weed control rating (PAPRH; 0.030 kg/ha): 100 | PAPRH weed control rating (PAPRH; 0.060 kg/ha): 100 | PAPRH weed control rating (PAPRH; 0.120 kg/ha): 100 | PAPRH weed control rating (PAPRH; 0.240 kg/ha): 100 | VIOAR weed control rating (VIOAR; 0.030 kg/ha): 99 | VIOAR weed control rating (VIOAR; 0.060 kg/ha): 99 | VIOAR weed control rating (VIOAR; 0.120 kg/ha): 99 | VIOAR weed control rating (VIOAR; 0.240 kg/ha): 99 | TRZAWK rating (Selectivity) ([1]; 0.060 kg/ha): 10 | TRZAWK rating (Selectivity) ([1]; 0.120 kg/ha): 12 | TRZAWK rating (Selectivity) ([1]; 0.240 kg/ha): 25 | TRZAWM rating (Selectivity) ([2]; 0.030 kg/ha): 1 | TRZAWM rating (Selectivity) ([2]; 0.060 kg/ha): 8 | TRZAWM rating (Selectivity) ([2]; 0.120 kg/ha): 15 | TRZAWM rating (Selectivity) ([2]; 0.240 kg/ha): 25 | STEME weed control rating (Stellaria media; 0.030 kg/ha): 97 | STEME weed control rating (Stellaria media; 0.060 kg/ha): 100 | STEME weed control rating (Stellaria media; 0.120 kg/ha): 100 | STEME weed control rating (Stellaria media; 0.240 kg/ha): 100 | GALAP weed control rating (Galium aparine; 0.120 kg/ha): 65 | GALAP weed control rating (Galium aparine; 0.240 kg/ha): 97 | POAAN weed control rating (Poa annua; 0.030 kg/ha): 100 | POAAN weed control rating (Poa annua; 0.060 kg/ha): 100 | POAAN weed control rating (Poa annua; 0.120 kg/ha): 100 | POAAN weed control rating (Poa annua; 0.240 kg/ha): 100 | APESV weed control rating (Apera spica-venti; 0.030 kg/ha): 100 | APESV weed control rating (Apera spica-venti; 0.060 kg/ha): 100 | APESV weed control rating (Apera spica-venti; 0.120 kg/ha): 100 | APESV weed control rating (Apera spica-venti; 0.240 kg/ha): 100 | VERPE weed control rating (Veronica persica; 0.030 kg/ha): 96 | VERPE weed control rating (Veronica persica; 0.060 kg/ha): 100 | VERPE weed control rating (Veronica persica; 0.120 kg/ha): 100 | VERPE weed control rating (Veronica persica; 0.240 kg/ha): 100 | SETVI weed control rating (Setaria viridis; 0.030 kg/ha): 100 | SETVI weed control rating (Setaria viridis; 0.060 kg/ha): 100 | SETVI weed control rating (Setaria viridis; 0.120 kg/ha): 100 | SETVI weed control rating (Setaria viridis; 0.240 kg/ha): 100 | LOLPE weed control rating (Lolium perenne; 0.030 kg/ha): 95 | LOLPE weed control rating (Lolium perenne; 0.060 kg/ha): 100 | LOLPE weed control rating (Lolium perenne; 0.120 kg/ha): 100 | LOLPE weed control rating (Lolium perenne; 0.240 kg/ha): 100 | LAMPU weed control rating (Lamium purpureum; 0.030 kg/ha): 85 | LAMPU weed control rating (Lamium purpureum; 0.060 kg/ha): 100 | LAMPU weed control rating (Lamium purpureum; 0.120 kg/ha): 100 | LAMPU weed control rating (Lamium purpureum; 0.240 kg/ha): 100 | MATIN weed control rating (Matricaria inodora; 0.030 kg/ha): 99 | MATIN weed control rating (Matricaria inodora; 0.060 kg/ha): 100 | MATIN weed control rating (Matricaria inodora; 0.120 kg/ha): 100 | MATIN weed control rating (Matricaria inodora; 0.240 kg/ha): 100 | ALOMY weed control rating (Alopecurus myosuroides; 0.030 kg/ha): 30 | ALOMY weed control rating (Alopecurus myosuroides; 0.060 kg/ha): 60 | ALOMY weed control rating (Alopecurus myosuroides; 0.120 kg/ha): 97 | ALOMY weed control rating (Alopecurus myosuroides; 0.240 kg/ha): 99 | maximum tolerated dose in wheat / dose at which sufficiently selective in wheat (wheat): 120 g/ha

CSc1cc(Oc2ccnc(Cl)c2)nc(-c2ccc(C(F)(F)F)cc2)n1 [REF-7]
PAPRH weed control rating (PAPRH; 0.030 kg/ha): 95 | PAPRH weed control rating (PAPRH; 0.060 kg/ha): 100 | PAPRH weed control rating (PAPRH; 0.120 kg/ha): 100 | PAPRH weed control rating (PAPRH; 0.240 kg/ha): 100 | VIOAR weed control rating (VIOAR; 0.030 kg/ha): 98 | VIOAR weed control rating (VIOAR; 0.060 kg/ha): 99 | VIOAR weed control rating (VIOAR; 0.120 kg/ha): 99 | VIOAR weed control rating (VIOAR; 0.240 kg/ha): 99 | TRZAWK rating (Selectivity) ([1]; 0.030 kg/ha): 2 | TRZAWK rating (Selectivity) ([1]; 0.060 kg/ha): 5 | TRZAWK rating (Selectivity) ([1]; 0.120 kg/ha): 5 | TRZAWK rating (Selectivity) ([1]; 0.240 kg/ha): 18 | TRZAWM rating (Selectivity) ([2]; 0.030 kg/ha): 2 | TRZAWM rating (Selectivity) ([2]; 0.060 kg/ha): 5 | TRZAWM rating (Selectivity) ([2]; 0.120 kg/ha): 5 | TRZAWM rating (Selectivity) ([2]; 0.240 kg/ha): 10 | STEME weed control rating (Stellaria media; 0.030 kg/ha): 25 | STEME weed control rating (Stellaria media; 0.060 kg/ha): 98 | STEME weed control rating (Stellaria media; 0.120 kg/ha): 98 | STEME weed control rating (Stellaria media; 0.240 kg/ha): 100 | GALAP weed control rating (Galium aparine; 0.120 kg/ha): 65 | GALAP weed control rating (Galium aparine; 0.240 kg/ha): 92 | POAAN weed control rating (Poa annua; 0.030 kg/ha): 95 | POAAN weed control rating (Poa annua; 0.060 kg/ha): 95 | POAAN weed control rating (Poa annua; 0.120 kg/ha): 100 | POAAN weed control rating (Poa annua; 0.240 kg/ha): 100 | APESV weed control rating (Apera spica-venti; 0.030 kg/ha): 100 | APESV weed control rating (Apera spica-venti; 0.060 kg/ha): 100 | APESV weed control rating (Apera spica-venti; 0.120 kg/ha): 100 | APESV weed control rating (Apera spica-venti; 0.240 kg/ha): 100 | VERPE weed control rating (Veronica persica; 0.030 kg/ha): 70 | VERPE weed control rating (Veronica persica; 0.060 kg/ha): 90 | VERPE weed control rating (Veronica persica; 0.120 kg/ha): 99 | VERPE weed control rating (Veronica persica; 0.240 kg/ha): 100 | SETVI weed control rating (Setaria viridis; 0.030 kg/ha): 35 | SETVI weed control rating (Setaria viridis; 0.060 kg/ha): 85 | SETVI weed control rating (Setaria viridis; 0.120 kg/ha): 93 | SETVI weed control rating (Setaria viridis; 0.240 kg/ha): 100 | LOLPE weed control rating (Lolium perenne; 0.030 kg/ha): 75 | LOLPE weed control rating (Lolium perenne; 0.060 kg/ha): 90 | LOLPE weed control rating (Lolium perenne; 0.120 kg/ha): 97 | LOLPE weed control rating (Lolium perenne; 0.240 kg/ha): 99 | LAMPU weed control rating (Lamium purpureum; 0.030 kg/ha): 30 | LAMPU weed control rating (Lamium purpureum; 0.060 kg/ha): 90 | LAMPU weed control rating (Lamium purpureum; 0.120 kg/ha): 93 | LAMPU weed control rating (Lamium purpureum; 0.240 kg/ha): 100 | MATIN weed control rating (Matricaria inodora; 0.030 kg/ha): 90 | MATIN weed control rating (Matricaria inodora; 0.060 kg/ha): 100 | MATIN weed control rating (Matricaria inodora; 0.120 kg/ha): 100 | MATIN weed control rating (Matricaria inodora; 0.240 kg/ha): 100 | ALOMY weed control rating (Alopecurus myosuroides; 0.030 kg/ha): 10 | ALOMY weed control rating (Alopecurus myosuroides; 0.060 kg/ha): 35 | ALOMY weed control rating (Alopecurus myosuroides; 0.120 kg/ha): 65 | ALOMY weed control rating (Alopecurus myosuroides; 0.240 kg/ha): 90 | maximum tolerated dose in wheat / dose at which sufficiently selective in wheat (wheat): 240 g/ha
